The subject of data set [1] is GM15850 cells (FRDA lymphoblastoid cell line). Kind of data set: In-cell deacetylase inhibition assay (DAC assay). The settings on record: 4 h incubation. It counts as cell-based, human. An excerpt:
Compound dilutions were made in 100% DMSO followed by parallel dilution in media with 2% DMSO. […] The final concentration of DMSO in each well was 0.2%.

Data set [2] can be described thus: Cytotoxicity, antiproliferation assay. It counts as cell-based. The settings on record: human, Hct116 cells.
The subject of another data set is Hct116 cells. The experiment in a line: Cytotoxicity, antiproliferation assay. The settings on record: for ratio cytotoxicity/DAC: Hct116 antiproliferation IC50 / in-cell DAC IC50. Type of data set: cell-based.
Data set [3] has as its system FXN gene transcription in primary lymphocytes from a FRDA patient. The experiment in a line: Frataxin mRNA assay (quantitative RT-PCR). As to conditions: 10 μM compound, 48 h, primary lymphocytes from FRDA patient donor blood, normalized to DMSO control. Type of data set: cell-based, human. How it is done:
In general, the activity of a compound against HDAC3 is related to its ability to increase FXN gene transcription. Compounds click-1 and -2 were assayed for their ability to increase transcription of the FXN gene in primary lymphocytes from a FRDA patient, as previously described.
Quantitative RT-PCR was used to estimate FXN mRNA levels after treatment with 10 μM compound for 48 h, and values were normalized to the level of FXN mRNA observed for a DMSO vehicle control.
Figure 3 Click-derived HDAC inhibitors induce frataxin gene expression in primary lymphocytes isolated from FRDA patient donor blood samples, compared to a standard pimelic o-aminobenzamide (109). Concentration of each compound is 10 μM.

Data set [4] is described as follows: Acid stability determination. The settings on record: pH = 2, 50 °C; for half-life at 100 µM: 0.01 M HCl in deionized water, read-out: t1/2 in acidic conditions (converted). Type of data set: physicochemical. On the procedure:
Immediately after mixing, an aliquot (100 μL) was sampled and analyzed by HPLC/UV. The area under the compound peak was determined and used as the time zero reference point. […] These were analyzed by the same HPLC/UV method and the area of the peak corresponding to the test compound was measured. Percent remaining at a given time point was then calculated as the ratio of the area under the peak after incubation to that at time zero times 100.

A further data set can be described thus: in vivo. As to conditions: rat, 5 mg/kg.
The target in a further data set is recombinant HDAC1 (Homo sapiens, UniProt Q13547). Kind of data set: HDAC enzyme inhibition assay (Fluor-de-Lys), HDAC1.
Chain of recombinant HDAC1 (Q13547 whole entry): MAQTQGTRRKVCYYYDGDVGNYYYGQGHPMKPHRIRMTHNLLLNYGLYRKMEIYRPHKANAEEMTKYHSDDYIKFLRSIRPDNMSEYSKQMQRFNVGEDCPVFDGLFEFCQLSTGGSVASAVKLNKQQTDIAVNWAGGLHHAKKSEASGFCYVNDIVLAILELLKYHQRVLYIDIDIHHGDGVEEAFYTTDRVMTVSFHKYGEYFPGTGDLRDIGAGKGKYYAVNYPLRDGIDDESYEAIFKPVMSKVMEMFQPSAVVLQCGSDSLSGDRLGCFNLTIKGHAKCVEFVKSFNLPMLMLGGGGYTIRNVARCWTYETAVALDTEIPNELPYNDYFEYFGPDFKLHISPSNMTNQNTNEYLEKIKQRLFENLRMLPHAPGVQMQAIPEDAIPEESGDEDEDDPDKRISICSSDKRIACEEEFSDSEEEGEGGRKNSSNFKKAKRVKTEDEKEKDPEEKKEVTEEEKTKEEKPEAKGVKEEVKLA
In another data set the target is recombinant HDAC2 (Homo sapiens, UniProt Q92769). The experiment in a line: HDAC enzyme inhibition assay (Fluor-de-Lys), HDAC2.
Chain of recombinant HDAC2 (Q92769 whole entry): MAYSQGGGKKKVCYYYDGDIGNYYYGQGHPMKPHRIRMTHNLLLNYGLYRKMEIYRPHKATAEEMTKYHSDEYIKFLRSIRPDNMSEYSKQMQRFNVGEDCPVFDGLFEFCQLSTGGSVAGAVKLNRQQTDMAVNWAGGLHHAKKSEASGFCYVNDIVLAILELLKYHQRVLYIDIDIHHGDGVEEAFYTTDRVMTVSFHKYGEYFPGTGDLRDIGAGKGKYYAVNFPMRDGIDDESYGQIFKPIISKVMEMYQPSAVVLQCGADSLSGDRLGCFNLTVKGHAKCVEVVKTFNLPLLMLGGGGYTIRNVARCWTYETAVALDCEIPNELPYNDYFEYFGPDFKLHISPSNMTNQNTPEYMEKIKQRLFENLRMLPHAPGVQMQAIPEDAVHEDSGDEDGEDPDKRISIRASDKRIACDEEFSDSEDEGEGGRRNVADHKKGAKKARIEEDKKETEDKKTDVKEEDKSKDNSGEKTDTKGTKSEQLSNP
The target of another data set is HDAC3/NcoR2 (Homo sapiens, UniProt O15379). The experiment in a line: HDAC enzyme inhibition assay (Fluor-de-Lys), HDAC3. As to conditions: for selectivity for HDAC3 over HDAC1: ratio of IC50 values HDAC1/HDAC3.
Chain of HDAC3/NcoR2 (O15379 whole entry): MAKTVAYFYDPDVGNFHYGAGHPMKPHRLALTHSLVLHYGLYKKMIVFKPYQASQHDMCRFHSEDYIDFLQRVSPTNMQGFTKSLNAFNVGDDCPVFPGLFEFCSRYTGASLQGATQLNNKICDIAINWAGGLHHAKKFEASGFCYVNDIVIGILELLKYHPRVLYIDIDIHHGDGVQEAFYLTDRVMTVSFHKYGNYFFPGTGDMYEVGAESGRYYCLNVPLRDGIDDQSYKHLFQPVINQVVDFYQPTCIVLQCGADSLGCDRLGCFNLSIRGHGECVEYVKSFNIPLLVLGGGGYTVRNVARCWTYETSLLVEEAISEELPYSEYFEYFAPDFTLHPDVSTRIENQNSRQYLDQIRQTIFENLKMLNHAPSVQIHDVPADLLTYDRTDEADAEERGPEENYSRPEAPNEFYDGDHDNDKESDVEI
Chain of HDAC3/NcoR2 (Q9Y618 395-489 partner limits assumed): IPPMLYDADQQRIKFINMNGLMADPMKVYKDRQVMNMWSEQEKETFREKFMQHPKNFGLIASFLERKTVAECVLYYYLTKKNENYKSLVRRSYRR
A short description of data set [5]: Brain penetration in mouse. It counts as in vivo. As to conditions: brain and plasma.
Data set [6] can be described thus: Compound stability (method not described). It counts as physicochemical. The settings on record: conditions not stated. An excerpt: All three azides 5, 8 and 16 were subjected to click chemistry with common intermediate 3 to give the corresponding triazole products click-1, click-2 and click-3 (Scheme 5). Each compound was characterized by ^1H-, ^13C-NMR and mass spectrometry.

On to `Nc1ccccc1NC(=O)/C=C/c1cn(CC=Cc2ccccc2)nn1` [Click-1, (E)-N-(2-Aminophenyl)-3-(1-cinnamyl-1H-1,2,3-triazol-4-yl)acrylamide], for which the IC50 (usually the concentration that gives 50% inhibition) in data set [1] (Homo sapiens) stood at 5600 nM; in data set [2] it was 23000 nM; on recombinant HDAC1, 66 nM; on recombinant HDAC2 it was 477 nM; on HDAC3/NcoR2 it was 28 nM. Also, the “ratio cytotoxicity/DAC” value with Hct116 cells was 4.1. Moreover, the “promoting transcription of the silenced FXN gene (FXN mRNA)” value in data set [3] is “highly active”. Moreover, in data set [4], the half-life at 100 µM is 33 h. Also, the “improvement of acid half-life relative to HDACi 109” value in [4] is given as 5.5 fold. The Kp (commonly tissue or fluid exposure divided by exposure in the circulation) in “in vivo” (brain and plasma, intravenous) was found to be 0.33. Further, in “in vivo” (brain, iv), the Cmax (commonly the highest concentration seen after dosing) was 800 ng/g. For the same molecule, the Tmax (commonly the time from dosing to the highest level) in “in vivo” (brain, iv) is 5 min. The “selectivity for HDAC3 over HDAC1” value at HDAC3/NcoR2 is on record as 2.4 fold.

As for `Nc1ccccc1NC(=O)/C=C/c1cn(C/C=C/c2ccc3cc[nH]c3c2)nn1` [Click-2, (E)-3-(1-((E)-3-(1H-Indol-6-yl)allyl)-1H-1,2,3-triazol-4-yl)-N-(2-aminophenyl)acrylamide], the half-inhibitory concentration (IC50) in [1] (Homo sapiens) stood at 5100 nM; in data set [2], 27000 nM; at recombinant HDAC1, 46 nM; at recombinant HDAC2, 466 nM; on HDAC3/NcoR2 it was 39 nM. The “ratio cytotoxicity/DAC” value in the data set on Hct116 cells amounted to 5.3. For the same molecule, the “promoting transcription of the silenced FXN gene (FXN mRNA)” value in data set [3] is recorded as “highly active”. Besides, the half-life at 100 µM in data set [4] is 24 h. The “improvement of acid half-life relative to HDACi 109” value in [4] is reported as 4 fold. The molecule further yielded a concentration ratio (Kp) in [5] of 0.03. At HDAC3/NcoR2, the “selectivity for HDAC3 over HDAC1” value is reported as 1.2 fold.

Consider `Nc1ccccc1NC(=O)/C=C/c1cn(CCOc2ccc3cc[nH]c3c2)nn1` [Click-3, (E)-3-(1-(2-((1H-Indol-6-yl)oxy)ethyl)-1H-1,2,3-triazol-4-yl)-N-(2-aminophenyl)acrylamide], for which, in data set [1] (Homo sapiens), the IC50 was determined as 29400 nM. Also, in data set [6], the stability entry is on record as “poor stability”.

In the case of `Nc1ccccc1NC(=O)c1ccc(CNC(=O)OCc2cccnc2)cc1` [MS-275, reference compound], the results for the half-maximal inhibitory concentration (IC50) (in [1]; in the data set on Hct116 cells (Hct116 cells)) were 1900 nM and 1000 nM, respectively.

For `Cc1ccc(C(=O)NCCCCCC(=O)Nc2ccccc2N)cc1` [compound 109], the half-life at 100 µM in data set [4] was 6 h.
